Source: US7465718B2, “Ansamycins having improved pharmacological and biological properties” (Conforma Therapeutics Corporation, priority 2002, dated 2008)

Experiments:
[1] = MTS assay to measure cytotoxicity of PBMC; assay type: cell-based, human; details: human, PBMC, PBMCs without virus, read-out: TC50 (μM) (50% cytotoxicity)
Method: PBMC's in 96 well plates that were treated with compounds (without virus) were assayed for cell viability and compound toxicity using an MTS assay (CellTiter 96 Aqueous Non-Radioactivity Cell Proliferation Assay, Promega, Madison; Wis.).

[2] = molecular target: HSP90 (bis-ANS treated); assay: Biotin-geldanamycin competition binding, bis-ANS treated HSP90
[3] = test system: HIV-1ROJO; assay: Anti-HIV PBMC assay (reverse transcriptase activity in supernatant); details: for TI (therapeutic index, TC50/IC50): HIV-1ROJO in PBMCs; for IC50: read-out: IC50 (μM) (50% inhibition of virus replication), HIV-1ROJO in fresh human PBMCs, 7 days
[4] = Water solubility studies (salts dissolved in water at room temperature); assay type: physicochemical; details: thermodynamic from solid, HCl salt, read-out: Solubility of the HCl salt in H2O
Method: Various salts were prepared as described in the example section and dissolved in water at room temperature.

[5] = test system: Her-2; assay: HER2 inhibition assay (Her-2 degradation in MCF7 cells, flow cytometry); assay type: cell-based; details: read-out: HER-2 degradation (IC50 nM)
Method: MCF7 cells are seeded in 24 well plates at a density of approximately 30,000 cells/well and allowed to grow for 16 hours in DMEM supplemented with 10% FBS. Drug is then added at a concentration range of 100 uM to 0.01 uM. Cells are incubated for an additional 24. […] 10,000 events were collected per sample. A fluorescence histogram was generated and the mean fluorescence intensity (mfi) of each sample was determined using Cellquest software. The background was defined as the mfi generated from cells incubated with control IgG, and was subtracted from each sample stained with the HER-2/neu Ab. Percent degradation of Her-2 was calculated as follows: % Her-2 degradation=(mfi HER-2 sample)/(mfi HER-2 untreated cells)×100 Water Solubility Studies

[6] = test system: HSP90 (cell lysate, high affinity); assay: Biotin-geldanamycin competition binding, HSP90 in cell lysate (high affinity); details: for ratio: rHsp90 (low affinity) IC50 over lysate (high affinity) IC50; for IC50: read-out: Lysate (high affinity) IC50 nM, inhibition of biotin-GM binding to HSP90 in cell lysate, 4° C.
[7] = molecular target: rHsp90 (low affinity); assay: Biotin-geldanamycin competition binding, purified native HSP90 protein (rHsp90, low affinity); details: read-out: rHsp90 (low affinity) IC50 nM; inhibition of biotin-GM binding to purified HSP90, 4° C.
[8] = test system: SKOV-3 ovarian xenograft; assay: SKOV-3 ovarian xenograft model; assay type: in vivo; details: tumors 200 mm3 before commencement of treatment
Description: Compounds have also been tested in HER-2 over-expressing tumor models such as BT474 breast and SKOV-3 ovarian carcinoma A therapy experiment with SKOV-3 is shown in FIG. 6. The treatment, doses, and schedule were the same as used in the A549 and MDA435 experiments. In this case, the tumors were allowed to become established and grow to a relatively large size (200 mm3) before commencement of treatment.

Q: With `CCOP(=O)(NCCCCNC1=C2CC(C)CC(OC)C(O)C(C)/C=C(\C)C(OC(N)=O)C(OC)/C=C\C=C(/C)C(=O)NC(=CC1=O)C2=O)OCC` (stereo not shown) as the molecule, how does the melting point read?
A: The melting point was 94.8 to 96.2 °C.

Q: Which melting point does the source give for `COC1/C=C\C=C(/C)C(=O)NC2=CC(=O)C(NC(=O)NCc3ccc(F)cc3)=C(CC(C)CC(OC)C(O)C(C)/C=C(\C)C1OC(N)=O)C2=O` (stereo not shown) here?
A: Its melting point is 175 to 177 °C.

Q: For `COC1/C=C\C=C(/C)C(=O)NC2=CC(=O)C(NC(=O)c3snnc3C)=C(CC(C)CC(OC)C(O)C(C)/C=C(\C)C1OC(N)=O)C2=O` (stereo not shown), which melting point is on record?
A: The melting point was 157 to 159 °C.

Q: Which melting point does the source give for `COC1/C=C\C=C(/C)C(=O)NC2=CC(=O)C(NC(=O)c3c(C)noc3C)=C(CC(C)CC(OC)C(O)C(C)/C=C(\C)C1OC(N)=O)C2=O` (stereo not shown) here?
A: The melting point was 190 to 192 °C.

Q: For `COC1/C=C\C=C(/C)C(=O)NC2=CC(=O)C(NC(=O)c3cc(C)nn3C)=C(CC(C)CC(OC)C(O)C(C)/C=C(\C)C1OC(N)=O)C2=O` (stereo not shown), which melting point is on record?
A: The melting point was 193 to 195 °C.

Q: For `C=CCO/N=C1/[C@@H](OC)C[C@H](C)CC2=C(NC(=O)c3ccccc3)C(=O)C=C(NC(=O)/C(C)=C/C=C\[C@H](OC)[C@@H](OC(N)=O)/C(C)=C/[C@@H]1C)C2=O` (stereo in doubt) [Compound #1011], which CC50 [1] is on record?
A: Its CC50 is 2.9 µM.

Q: What about the IC50 [2] of the same molecule?
A: The IC50 was 5 µM.

Q: And the “TI (therapeutic index, TC50/IC50)” value [3]?
A: The value was 14.5.

Q: And the IC50 [3]?
A: Its IC50 is 0.2 µM.

Q: For `CO/N=C1/[C@@H](OC)C[C@H](C)CC2=C(NC(=O)c3ccccc3)C(=O)C=C(NC(=O)/C(C)=C/C=C\[C@H](OC)[C@@H](OC(N)=O)/C(C)=C/[C@@H]1C)C2=O` (stereo in doubt) [Compound #1012], which IC50 [2] is on record?
A: Its IC50 is 6 µM.

Q: With `CCO/N=C1/[C@@H](OC)C[C@H](C)CC2=C(NC(=O)c3ccccc3)C(=O)C=C(NC(=O)/C(C)=C/C=C\[C@H](OC)[C@@H](OC(N)=O)/C(C)=C/[C@@H]1C)C2=O` (stereo in doubt) [Compound #1013] as the molecule, how does the IC50 [2] read?
A: Its IC50 is 5.2 µM.

Q: Which CC50 [1] does the source give for `C=CCNC1=C2C[C@@H](C)C[C@H](OC)[C@H](O)[C@@H](C)/C=C(\C)[C@H](OC(N)=O)[C@@H](OC)/C=C\C=C(/C)C(=O)NC(=CC1=O)C2=O` [Compound 17-AAG, 17-allyl amino geldanamycin, reference compound] here?
A: Its CC50 is 2.02 µM.

Q: And the IC50 [3]?
A: The IC50 was 0.38 µM.

Q: And the solubility [4]?
A: Its solubility is < 10 µg/mL.

Q: And the IC50 [5]?
A: Its IC50 is 5 nM.

Q: With `COC1/C=C\C=C(/C)C(=O)NC2=CC(=O)C(c3ccccc3)=C(CC(C)CC(OC)C(O)C(C)/C=C(\C)C1OC(N)=O)C2=O` (stereo not shown) [Compound #133, 17-phenyl-geldanamycin] as the molecule, how does the solubility [4] read?
A: Its solubility is < 10 µg/mL.

Q: What about the IC50 [5] of the same molecule?
A: The IC50 was 25 nM.

Q: For `COC1C=CC=C(C)C(=O)NC2=CC(=O)C(NCCCN3CCN(CCCNC4=C5CC(C)CC(OC)C(O)C(C)C=C(C)C(OC(N)=O)C(OC)C=CC=C(C)C(=O)NC(=CC4=O)C5=O)CC3)=C(CC(C)CC(OC)C(O)C(C)C=C(C)C1OC(N)=O)C2=O` (stereo not shown) [Compound #207], which melting point is on record?
A: The melting point was 162 °C.

Q: What about the solubility [4] of the same molecule?
A: Its solubility is ≥ 13000 µg/mL.

Q: And the IC50 [5]?
A: The IC50 was 12 nM.

Q: For `COC1C=CC=C(C)C(=O)NC2=CC(=O)C(NCCCN(C)CCCNC3=C4CC(C)CC(OC)C(O)C(C)C=C(C)C(OC(N)=O)C(OC)C=CC=C(C)C(=O)NC(=CC3=O)C4=O)=C(CC(C)CC(OC)C(O)C(C)C=C(C)C1OC(N)=O)C2=O` (stereo not shown) [Compound #208], which CC50 [1] is on record?
A: Its CC50 is 0.27 µM.

Q: What about the melting point of the same molecule?
A: Its melting point is 153 °C (dec.).

Q: And the “TI (therapeutic index, TC50/IC50)” value [3]?
A: Its value is 38.6.

Q: What about the IC50 [3] of the same molecule?
A: Its IC50 is 0.007 µM.

Q: What about the solubility [4] of the same molecule?
A: The solubility was ≥ 20000 µg/mL.

Q: What about the IC50 [5] of the same molecule?
A: Its IC50 is 11 nM.

Q: With `COc1ccccc1C1=C2CC(C)CC(OC)C(O)C(C)/C=C(\C)C(OC(N)=O)C(OC)/C=C\C=C(/C)C(=O)NC(=CC1=O)C2=O` (stereo not shown) [Compound #212, 17-(2-methoxy-phenyl)-geldanamycin] as the molecule, how does the solubility [4] read?
A: Its solubility is < 10 µg/mL.

Q: What about the IC50 [5] of the same molecule?
A: The IC50 was 10 nM.

Q: Which results are given for `COC1/C=C\C=C(/C)C(=O)NC2=CC(=O)C(c3cccs3)=C(CC(C)CC(OC)C(O)C(C)/C=C(\C)C1OC(N)=O)C2=O` (stereo not shown) [Compound #232, 17-(2-thiophen)-geldanamycin]?
A: solubility [4]: < 10 µg/mL; IC50 [5]: 80 nM

Q: Which results are given for `COC1/C=C\C=C(/C)C(=O)NC2=CC(=O)C(NC(=O)c3ccccn3)=C(CC(C)CC(OC)C(O)C(C)/C=C(\C)C1OC(N)=O)C2=O` (stereo not shown) [Compound #529, 17-picolinoyl-aminogeldanamycin]?
A: ratio [6]: 67; IC50 [6]: 15 nM; melting point: 195 to 197 °C; IC50 [7]: 1000 nM

Q: For `COC1/C=C\C=C(/C)C(=O)NC2=CC(=O)C(NC(=O)c3ccncc3)=C(CC(C)CC(OC)C(O)C(C)/C=C(\C)C1OC(N)=O)C2=O` (stereo not shown) [Compound #530, 17-isonicotinoyl-aminogeldanamycin], which melting point is on record?
A: The melting point was 167 to 169 °C.

Q: And the solubility [4]?
A: The solubility was > 2000 µg/mL.

Q: What about the IC50 [5] of the same molecule?
A: The IC50 was 100 nM.

Q: For `COC1/C=C\C=C(/C)C(=O)NC2=CC(=O)C(NC(=O)c3cc(C)nn3C(C)(C)C)=C(CC(C)CC(OC)C(O)C(C)/C=C(\C)C1OC(N)=O)C2=O` (stereo not shown) [Compound #561, 17-(1-t-butyl-3-methyl-1H-pyrazole-5-carbonyl-amino)-geldanamycin], which melting point is on record?
A: The melting point was 216 to 218 °C.

Q: Which “tumor growth in SKOV-3 xenograft” value [8] does the source give for `COC1/C=C\C=C(/C)C(=O)NC2=CC(=O)C(NC(=O)c3ccccc3)=C(CC(C)CC(OC)C(O)C(C)/C=C(\C)C1OC(N)=O)C2=O` (stereo not shown) [Compound #563, 17-(benzoyl)-aminogeldanamycin] here?
A: Its value is “suppressed tumor growth almost completely”.

Q: And the ratio [6]?
A: The ratio was 90.

Q: And the IC50 [6]?
A: Its IC50 is 50 nM.

Q: What about the melting point of the same molecule?
A: The melting point was 218 to 220 °C.

Q: And the IC50 [7]?
A: The IC50 was 4500 nM.

Q: What does the source list for `CO[C@H]1/C=C\C=C(/C)C(=O)NC2=CC(=O)C(NC(=O)c3ccc(CN(C)C)cc3)=C(C[C@@H](C)C[C@H](OC)[C@H](O)[C@@H](C)/C=C(\C)[C@@H]1OC(N)=O)C2=O` [Compound #687, 17-(4-dimethylaminomethyl-benzoyl)-aminogeldanamycin]?
A: ratio [6]: 250; IC50 [6]: 8 nM; melting point: 203 to 206 °C; IC50 [7]: 2000 nM

Q: With `CO[C@H]1/C=C\C=C(/C)C(=O)NC2=CC(=O)C(NC(=O)OCc3ccc(OC(C)=O)cc3)=C(C[C@@H](C)C[C@H](OC)[C@H](O)[C@@H](C)/C=C(\C)[C@@H]1OC(N)=O)C2=O` [Compound #709] as the molecule, how does the ratio [6] read?
A: Its ratio is 167.

Q: And the IC50 [6]?
A: The IC50 was 9 nM.

Q: And the IC50 [7]?
A: Its IC50 is 1500 nM.

Q: Which CC50 [1] does the source give for `CO[C@H]1/C=C\C=C(/C)C(=O)NC2=CC(=O)C(NC(=O)OCC(C)C)=C(C[C@@H](C)C[C@H](OC)[C@H](O)[C@@H](C)/C=C(\C)[C@@H]1OC(N)=O)C2=O` [Compound #749] here?
A: The CC50 was 1.12 µM.

Q: And the “TI (therapeutic index, TC50/IC50)” value [3]?
A: Its value is 56.0.

Q: What about the IC50 [3] of the same molecule?
A: The IC50 was 0.02 µM.

Q: With `CO[C@H]1/C=C\C=C(/C)C(=O)NC2=CC(=O)C(NC(=O)c3ccccc3)=C(C[C@@H](C)C[C@H](OC)[C@@H](OC(=O)CBr)[C@@H](C)/C=C(\C)[C@@H]1OC(N)=O)C2=O` [Compound #981] as the molecule, how does the IC50 [2] read?
A: Its IC50 is 5.5 µM.

Q: Which IC50 [2] does the source give for `CO[C@H]1/C=C\C=C(/C)C(=O)NC2=CC(=O)C(NC(=O)c3ccccc3)=C(C[C@@H](C)C[C@H](OC)[C@@H](OC(=O)/C=C/c3cccs3)[C@@H](C)/C=C(\C)[C@@H]1OC(N)=O)C2=O` [Compound #982] here?
A: The IC50 was 5.5 µM.

Q: For `CO[C@H]1/C=C\C=C(/C)C(=O)NC2=CC(=O)C(NC(=O)c3ccccc3)=C(C[C@@H](C)C[C@H](OC)[C@@H](OC(=O)Cc3ccccc3)[C@@H](C)/C=C(\C)[C@@H]1OC(N)=O)C2=O` [Compound #983], which IC50 [2] is on record?
A: The IC50 was 7 µM.

Q: With `CO[C@H]1/C=C\C=C(/C)C(=O)NC2=CC(=O)C(NC(=O)c3ccccc3)=C(C[C@@H](C)C[C@H](OC)[C@@H](OC(=O)Cc3cccs3)[C@@H](C)/C=C(\C)[C@@H]1OC(N)=O)C2=O` [Compound #984] as the molecule, how does the IC50 [2] read?
A: The IC50 was 4.2 µM.

Q: With `CCCCCC(=O)O[C@@H]1[C@@H](OC)C[C@H](C)CC2=C(NC(=O)c3ccccc3)C(=O)C=C(NC(=O)/C(C)=C/C=C\[C@H](OC)[C@@H](OC(N)=O)/C(C)=C/[C@@H]1C)C2=O` [Compound #985] as the molecule, how does the IC50 [2] read?
A: The IC50 was 12 µM.
